What is called melting point is the temperature of the solid-liquid transition. In turn, `COc1c(C(=O)NNS(=O)(=O)c2ccccc2)oc2ccc(-c3ccccc3)cc12` (hydrate or solvate) [Example 65, 2-Benzofurancarboxylic acid, 3-methoxy-5-phenyl-, 2-(phenylsulfonyl)hydrazide] came in with a melting point of 180.7 to 181.3 °C.

For the compound `COc1c(C(=O)NNS(=O)(=O)c2ccccc2)oc2c(-c3ccccc3)cccc12` (hydrate or solvate) [Example 67, 2-Benzofurancarboxylic acid, 3-methoxy-7-phenyl-, 2-(phenylsulfonyl)hydrazide], the melting point was 186.7 to 187.3 °C.

Regarding `COc1c(C(=O)NNS(=O)(=O)c2ccccc2)oc2cc3ccccc3cc12` (hydrate or solvate) [Example 68, Naptho[2,3-b]furan-2-carboxylic acid, 3-methoxy-, 2-(phenylsulfonyl)hydrazide], the melting point is 205.7 to 207.1 °C.

For `O=C(NNS(=O)(=O)c1ccccc1Br)c1cc2cc(Cl)cc(Cl)c2o1` (hydrate or solvate) [Example 73, 2-Benzofurancarboxylic acid, 5,7-dichloro 2-[(2-bromophenyl)sulfonyl]-hydrazide], the melting point fell in the range of 196.2 to 196.6 °C.

For `Cc1ccc2oc(C(=O)NNS(=O)(=O)c3ccccc3)cc2c1` (hydrate or solvate) [Example 77, Benzofurancarboxylic acid, 5-methyl-, 2-(phenylsulfonyl)hydrazide], the melting point was 183.3 to 183.6 °C.

Compound `COc1c(C(=O)NNS(=O)(=O)c2ccccc2)oc2ccc(Cl)cc12` (hydrate or solvate) [Example 78, 2-Benzofurancarboxylic acid, 5-chloro-3-methoxy, 2-(phenylsulfonyl)hydrazide] had a melting point of 242.2 to 244.2 °C.

As to `Cc1ccc2oc(C(=O)NNS(=O)(=O)c3ccccc3C(F)(F)F)cc2c1` (hydrate or solvate) [Example 79, 2-Benzofurancarboxylic acid, 5-methyl-, 2-[[2-(trifluoromethyl)phenyl]sulfonyl]-hydrazide], the melting point is 194 to 195.4 °C.

Regarding `Cc1cccc(S(=O)(=O)NNC(=O)c2cc3cc(C)ccc3o2)c1` (hydrate or solvate) [Example 80, 2-Benzofurancarboxylic acid, 5-methyl-, 2-([3-methylphenyl)sulfonyl]hydrazide], the melting point lay within 184.1 to 186 °C.

`Cc1ccc2oc(C(=O)NNS(=O)(=O)c3ccccc3C)cc2c1` (hydrate or solvate) [Example 81, 2-Benzofurancarboxylic acid, 5-methyl-, 2-[2-(methylphenyl)sulfonyl]hydrazide] came in with a melting point of 174.5 to 174.7 °C.

In turn, `Cc1ccc2oc(C(=O)NNS(=O)(=O)c3cccc(Cl)c3C)cc2c1` (hydrate or solvate) [Example 82, 2-Benzofurancarboxylic acid, 5-methyl-, 2-[(3-chloro-2-methylphenyl)sulfonyl]-hydrazide] yielded a melting point of 182.4 to 184 °C.

In turn, `Cc1ccc2oc(C(=O)NNS(=O)(=O)c3cccc(Br)c3)cc2c1` (hydrate or solvate) [Example 83, 2-Benzofurancarboxylic acid, 5-methyl-, 2-[3-(bromophenyl)sulfonyl]hydrazide] had a melting point of 207.2 to 209.9 °C.

For `Cc1ccc2oc(C(=O)NNS(=O)(=O)c3cccc(Cl)c3)cc2c1` (hydrate or solvate) [Example 84, 2-Benzofurancarboxylic acid, 5-methyl-, 2-[(3-chlorophenyl)sulfonyl]hydrazide], the melting point is 186.1 to 186.3 °C.

Consider `Cc1ccc2oc(C(=O)NNS(=O)(=O)c3ccccc3OC(F)(F)F)cc2c1` (hydrate or solvate) [Example 85, 2-Benzofurancarboxylic acid, 5-methyl-, 2-[[2-(trifluoromethoxy)phenyl]-sulfonyl]hydrazide], for which the melting point was in the range of 226.7 to 227 °C.

Compound `Cc1cccc2cc(C(=O)NNS(=O)(=O)c3ccccc3)oc12` (hydrate or solvate) [Example 86, 2-Benzofurancarboxylic acid, 7-methyl-, 2-(phenylsulfonyl)hydrazide] yielded a melting point of 217.5 to 218 °C.

Compound `Cc1cccc2oc(C(=O)NNS(=O)(=O)c3ccccc3)cc12` (hydrate or solvate) [Example 87, 2-Benzofurancarboxylic acid, 4-methyl-, 2-(phenylsulfonyl)hydrazide] yielded a melting point of 217 to 218 °C.

Compound `Cc1c(C(=O)NNS(=O)(=O)c2ccccc2)oc2ccccc12` (hydrate or solvate) [Example 88, 2-Benzofurancarboxylic acid, 3-methyl-, 2-(phenylsulfonyl)hydrazide] came in with a melting point of 221.6 to 222.2 °C.

For `Cc1ccc2oc(C(=O)NNS(=O)(=O)c3ccccc3)c(C)c2c1` (hydrate or solvate) [Example 89, 2-Benzofurancarboxylic acid, 3,5-dimethyl-, 2-(phenylsulfonyl)hydrazide], the melting point lay in the range of 225.9 to 227.1 °C.

As for `Cc1c(C(=O)NNS(=O)(=O)c2ccccc2)oc2ccc(Cl)cc12` (hydrate or solvate) [Example 90, 2-Benzofurancarboxylic acid, 5-chloro-3-methyl, 2-(phenylsulfonyl)hydrazide], the melting point was in the range of 246.8 to 247.8 °C.

As to `Nc1ccc2oc(C(=O)NNS(=O)(=O)c3ccccc3)cc2c1` (hydrate or solvate) [Example 91, 2-Benzofurancarboxylic acid, 5-amino-, 2-(phenylsulfonyl)hydrazide], the melting point was in the range of 206.9 to 207.7 °C.

Turning to `Cc1cccc(S(=O)(=O)NNC(=O)c2ccc3ncccc3c2)c1` (hydrate or solvate) [Example 128, 6-Quinolinecarboxylic acid, 2-[(3-methylphenyl)sulfonyl]hydrazide], the melting point lay in the range of 234 to 234.6 °C.

In turn, `Cc1cccc(S(=O)(=O)NNC(=O)c2cnc3ccccc3c2)c1` (hydrate or solvate) [Example 129, 3-Quinolinecarboxylic acid, 2-[(3-methylphenyl)sulfonyl]hydrazide] yielded a melting point of 238.6 to 239.4 °C.

As to `O=C(NNS(=O)(=O)c1cccc(Cl)c1)c1ccc2ncccc2c1` (hydrate or solvate) [Example 130, 6-Quinolinecarboxylic acid, 2-[(3-chlorophenyl)sulfonyl]hydrazide], the melting point lay within 238.4 to 239.1 °C.

Compound `O=C(NNS(=O)(=O)c1cccc(Cl)c1)c1cnc2ccccc2c1` (hydrate or solvate) [Example 131, 3-Quinolinecarboxylic acid, 2-[(3-chlorophenyl)sulfonyl]hydrazide] gave a melting point of 249.5 to 250.4 °C.

In turn, `O=C(NNS(=O)(=O)c1cccc(F)c1)c1ccc2ncccc2c1` (hydrate or solvate) [Example 132, 6-Quinolinecarboxylic acid, 2-[(3-fluorophenyl)sulfonyl]hydrazide] had a melting point of 250.6 to 251.3 °C.

Compound `O=C(NNS(=O)(=O)c1cccc(F)c1)c1cnc2ccccc2c1` (hydrate or solvate) [Example 133, 3-Quinolinecarboxylic acid, 2-[(3-fluorophenyl)sulfonyl]hydrazide] showed a melting point of 247.8 to 248.4 °C.

`O=C(NNS(=O)(=O)c1cc(Cl)cc(Cl)c1)c1ccc2ncccc2c1` (hydrate or solvate) [Example 138, 6-Quinolinecarboxylic acid, 2-[(3,5-dichlorophenyl)sulfonyl]hydrazide] yielded a melting point of 241.6 to 242.3 °C.

In turn, `O=C(NNS(=O)(=O)c1cc(Cl)cc(Cl)c1)c1cnc2ccccc2c1` (hydrate or solvate) [Example 139, 3-Quinolinecarboxylic acid, 2-[(3,5-dichlorophenyl)sulfonyl]hydrazide] yielded a melting point of 241.3 to 241.9 °C.

The compound `O=C(NNS(=O)(=O)c1ccccc1)c1nccc2ccccc12` (hydrate or solvate) [Example 152, Isoquinoline-1-carboxylic acid 2-(phenylsulfonyl)hydrazide] showed a melting point of 198 to 200 °C.

`O=C(NNS(=O)(=O)c1ccccc1)c1ccc2[nH]ccc2c1` (hydrate or solvate) [Example 153, 1H-Indole-5-carboxylic acid 2-(phenylsulfonyl)hydrazide]: the melting point was 209 to 211 °C.

Consider `O=C(NNS(=O)(=O)c1ccccc1)c1cnc2ccccc2c1` (hydrate or solvate) [Example 154, Quinoline-3-carboxylic acid 2-(phenylsulfonyl)hydrazide], for which the melting point lay within 249 to 250 °C.

In turn, `CCOc1cccc2cc(C(=O)NNS(=O)(=O)c3ccccc3)oc12` [Example 147, 7-Ethoxy-2-benzofurancarboxylic acid 2-(phenylsulfonyl)-hydrazide] yielded a melting point of 223 to 224 °C.

In turn, `O=C(NNS(=O)(=O)c1ccccc1)c1cc2cccc(Cl)c2o1` [Example 148, 7-Chloro-benzofuran-2-carboxylic acid 2-(phenylsulfonyl)hydrazide] displayed a melting point of 223 to 224 °C.

In the case of `Nc1ccc2[nH]c(C(=O)NNS(=O)(=O)c3ccccc3)cc2c1` [Example 150, 2-Indolecarboxylic acid, 5-amino-2-phenylsulfonyl hydrazide], the melting point lay within 240.2 to 241.1 °C.

For the compound `O=C(NNS(=O)(=O)c1ccc([N+](=O)[O-])cc1)c1ccc2oc3ccccc3c2c1` [Example 159, 2-Dibenzofurancarboxylic acid, 2-(4-nitrophenyl)sulfonyl hydrazide], the melting point lay in the range of 239.3 to 239.9 °C.

The compound `COc1ccc(S(=O)(=O)Nc2ccc3oc(C(=O)NNS(=O)(=O)c4ccccc4)cc3c2)cc1` [Example 160, 2-Benzofurancarboxylic acid, 5-(4-methoxyphenylsulfonylamino)-, 2-(phenylsulfonyl)hydrazide] yielded a melting point of 213 to 214 °C.

On to `Cc1ccc(S(=O)(=O)Nc2ccc3oc(C(=O)NNS(=O)(=O)c4ccccc4)cc3c2)cc1` [Example 161, 2-Benzofurancarboxylic acid, 5-(4-methylphenylsulfonylamino)-, 2-(phenylsulfonyl)hydrazide], for which the melting point lay in the range of 181 to 183 °C.

`O=C(NNS(=O)(=O)c1ccccc1[N+](=O)[O-])c1ccc2oc3ccccc3c2c1` [Example 162, 2-Dibenzofurancarboxylic acid, 2-[(2-nitrophenyl)sulfonyl]hydrazide]: the melting point lay in the range of 223.4 to 224.1 °C.
